In ChEMBL document CHEMBL1135510, “Common and selective molecular determinants involved in metabotopic glutamate receptor agonist activity” (J Med Chem, 2002):

Key:
[1] = biological target: T1, Metabotropic glutamate receptor 4 (Homo sapiens, UniProt Q14833); test: Binding affinity at Metabotropic glutamate receptor 4; parameters: species or system Rattus norvegicus
[2] = biological target: Metabotropic glutamate receptor 1 (Rattus norvegicus, UniProt P23385); test: Inhibition of binding to rat mGluR1a (metabotropic glutamate receptor) expressed in HEK-293 cells; type: cell-based, HEK293
Metabotropic glutamate receptor 1, sequence (P23385 whole entry): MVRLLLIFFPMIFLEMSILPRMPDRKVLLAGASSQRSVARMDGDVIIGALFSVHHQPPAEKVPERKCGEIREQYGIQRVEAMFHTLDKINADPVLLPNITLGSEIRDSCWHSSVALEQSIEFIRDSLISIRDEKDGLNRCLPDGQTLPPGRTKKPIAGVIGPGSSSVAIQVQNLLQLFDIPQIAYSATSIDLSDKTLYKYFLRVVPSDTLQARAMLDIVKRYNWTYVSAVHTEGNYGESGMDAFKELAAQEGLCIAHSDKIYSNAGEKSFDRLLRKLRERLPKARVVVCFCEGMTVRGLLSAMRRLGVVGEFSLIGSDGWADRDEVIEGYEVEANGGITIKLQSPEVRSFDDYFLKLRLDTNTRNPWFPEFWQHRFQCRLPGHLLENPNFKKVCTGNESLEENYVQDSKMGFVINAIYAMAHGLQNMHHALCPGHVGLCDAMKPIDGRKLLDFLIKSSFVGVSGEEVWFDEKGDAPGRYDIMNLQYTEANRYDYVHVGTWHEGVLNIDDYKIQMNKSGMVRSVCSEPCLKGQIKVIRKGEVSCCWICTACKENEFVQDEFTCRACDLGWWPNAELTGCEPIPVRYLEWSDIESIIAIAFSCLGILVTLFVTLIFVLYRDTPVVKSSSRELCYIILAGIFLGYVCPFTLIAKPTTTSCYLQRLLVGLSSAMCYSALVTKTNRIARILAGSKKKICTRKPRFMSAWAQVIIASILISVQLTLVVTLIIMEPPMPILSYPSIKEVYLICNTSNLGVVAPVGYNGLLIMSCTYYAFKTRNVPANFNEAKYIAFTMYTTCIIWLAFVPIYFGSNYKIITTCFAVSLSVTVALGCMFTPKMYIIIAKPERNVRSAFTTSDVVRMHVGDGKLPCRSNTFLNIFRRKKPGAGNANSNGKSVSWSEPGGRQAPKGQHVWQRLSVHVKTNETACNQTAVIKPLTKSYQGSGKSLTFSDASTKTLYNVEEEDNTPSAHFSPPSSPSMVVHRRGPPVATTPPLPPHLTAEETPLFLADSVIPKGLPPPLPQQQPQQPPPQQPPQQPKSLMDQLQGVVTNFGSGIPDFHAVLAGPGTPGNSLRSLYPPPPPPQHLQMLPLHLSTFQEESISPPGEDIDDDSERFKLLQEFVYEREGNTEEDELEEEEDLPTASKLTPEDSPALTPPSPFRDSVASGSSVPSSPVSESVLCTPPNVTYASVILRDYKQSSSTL

[3] = biological target: T2, Metabotropic glutamate receptor 2 (Homo sapiens, UniProt Q14416); test: Potency at Metabotropic glutamate receptor 2, measured as the ratio of EC50 to IC50; No effect at 1 mM
Target sequence in this assay (Q14416 19-872 limits assumed): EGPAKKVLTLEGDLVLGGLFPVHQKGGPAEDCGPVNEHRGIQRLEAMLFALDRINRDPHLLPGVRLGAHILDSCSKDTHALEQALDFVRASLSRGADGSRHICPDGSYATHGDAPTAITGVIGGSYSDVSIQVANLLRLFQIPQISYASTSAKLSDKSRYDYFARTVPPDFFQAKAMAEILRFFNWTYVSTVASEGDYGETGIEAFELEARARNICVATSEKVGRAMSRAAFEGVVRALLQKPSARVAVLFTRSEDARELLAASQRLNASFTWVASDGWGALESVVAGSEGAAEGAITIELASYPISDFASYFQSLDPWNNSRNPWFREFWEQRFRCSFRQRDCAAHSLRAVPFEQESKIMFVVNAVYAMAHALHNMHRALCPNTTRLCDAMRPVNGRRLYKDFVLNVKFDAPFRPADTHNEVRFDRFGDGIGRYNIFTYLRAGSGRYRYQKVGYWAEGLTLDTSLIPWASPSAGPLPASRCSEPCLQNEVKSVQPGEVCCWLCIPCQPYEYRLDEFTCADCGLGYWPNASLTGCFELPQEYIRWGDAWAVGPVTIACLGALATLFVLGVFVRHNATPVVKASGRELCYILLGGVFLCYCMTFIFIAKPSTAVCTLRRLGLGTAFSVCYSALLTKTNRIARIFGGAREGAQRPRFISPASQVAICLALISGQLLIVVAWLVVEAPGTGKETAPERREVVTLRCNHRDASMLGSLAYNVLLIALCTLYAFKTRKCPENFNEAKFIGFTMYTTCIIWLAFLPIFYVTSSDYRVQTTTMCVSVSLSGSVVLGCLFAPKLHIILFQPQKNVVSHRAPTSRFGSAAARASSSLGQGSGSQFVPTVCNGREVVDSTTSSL

[4] = biological target: Metabotropic glutamate receptor 1 (Homo sapiens) (UniProt Q13255); test: Potency at Metabotropic glutamate receptor 1, measured as the ratio of EC50 to IC50; No effect at 1 mM
Metabotropic glutamate receptor 1 (Homo sapiens), sequence (Q13255 19-1194 limits assumed): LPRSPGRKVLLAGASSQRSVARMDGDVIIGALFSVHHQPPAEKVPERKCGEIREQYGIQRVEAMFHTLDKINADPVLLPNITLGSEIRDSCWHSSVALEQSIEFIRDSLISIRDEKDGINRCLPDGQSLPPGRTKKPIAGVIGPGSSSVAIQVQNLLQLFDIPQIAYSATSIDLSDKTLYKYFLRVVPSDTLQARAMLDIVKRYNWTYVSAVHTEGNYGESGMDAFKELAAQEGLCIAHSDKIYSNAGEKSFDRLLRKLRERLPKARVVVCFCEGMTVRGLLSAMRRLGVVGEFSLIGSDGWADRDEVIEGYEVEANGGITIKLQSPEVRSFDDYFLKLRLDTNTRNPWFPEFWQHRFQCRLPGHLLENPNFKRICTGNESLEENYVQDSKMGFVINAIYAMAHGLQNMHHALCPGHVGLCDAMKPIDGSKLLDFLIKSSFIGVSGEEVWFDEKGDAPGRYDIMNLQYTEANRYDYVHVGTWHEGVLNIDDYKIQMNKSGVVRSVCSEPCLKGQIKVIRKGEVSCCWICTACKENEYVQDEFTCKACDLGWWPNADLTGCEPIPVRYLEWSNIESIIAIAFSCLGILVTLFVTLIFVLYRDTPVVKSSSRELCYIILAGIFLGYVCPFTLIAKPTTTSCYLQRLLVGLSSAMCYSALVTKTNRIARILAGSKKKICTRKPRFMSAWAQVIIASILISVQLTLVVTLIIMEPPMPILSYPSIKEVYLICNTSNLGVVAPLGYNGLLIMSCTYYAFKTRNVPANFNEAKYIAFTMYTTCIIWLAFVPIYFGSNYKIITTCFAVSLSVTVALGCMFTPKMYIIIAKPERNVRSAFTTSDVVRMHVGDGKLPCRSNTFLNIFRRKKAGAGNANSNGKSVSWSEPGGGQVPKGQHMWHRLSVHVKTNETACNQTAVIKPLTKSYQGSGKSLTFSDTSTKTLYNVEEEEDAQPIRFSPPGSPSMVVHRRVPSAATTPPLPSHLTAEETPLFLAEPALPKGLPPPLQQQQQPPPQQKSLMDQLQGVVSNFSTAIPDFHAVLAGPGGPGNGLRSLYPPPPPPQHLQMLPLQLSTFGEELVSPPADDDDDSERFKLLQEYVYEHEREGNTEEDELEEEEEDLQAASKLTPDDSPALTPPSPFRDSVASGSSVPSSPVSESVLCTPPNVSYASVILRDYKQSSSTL

[5] = biological target: Metabotropic glutamate receptor 1 (Homo sapiens) (UniProt Q13255); test: Potency at metabotropic glutamate receptor 1, measured as the ratio of EC50 to IC50; No effect at 1 mM
[6] = biological target: T2, Metabotropic glutamate receptor 2; test: Binding affinity at Metabotropic glutamate receptor 2; parameters: species or system Rattus norvegicus
Target sequence in this assay (Q14416 whole entry): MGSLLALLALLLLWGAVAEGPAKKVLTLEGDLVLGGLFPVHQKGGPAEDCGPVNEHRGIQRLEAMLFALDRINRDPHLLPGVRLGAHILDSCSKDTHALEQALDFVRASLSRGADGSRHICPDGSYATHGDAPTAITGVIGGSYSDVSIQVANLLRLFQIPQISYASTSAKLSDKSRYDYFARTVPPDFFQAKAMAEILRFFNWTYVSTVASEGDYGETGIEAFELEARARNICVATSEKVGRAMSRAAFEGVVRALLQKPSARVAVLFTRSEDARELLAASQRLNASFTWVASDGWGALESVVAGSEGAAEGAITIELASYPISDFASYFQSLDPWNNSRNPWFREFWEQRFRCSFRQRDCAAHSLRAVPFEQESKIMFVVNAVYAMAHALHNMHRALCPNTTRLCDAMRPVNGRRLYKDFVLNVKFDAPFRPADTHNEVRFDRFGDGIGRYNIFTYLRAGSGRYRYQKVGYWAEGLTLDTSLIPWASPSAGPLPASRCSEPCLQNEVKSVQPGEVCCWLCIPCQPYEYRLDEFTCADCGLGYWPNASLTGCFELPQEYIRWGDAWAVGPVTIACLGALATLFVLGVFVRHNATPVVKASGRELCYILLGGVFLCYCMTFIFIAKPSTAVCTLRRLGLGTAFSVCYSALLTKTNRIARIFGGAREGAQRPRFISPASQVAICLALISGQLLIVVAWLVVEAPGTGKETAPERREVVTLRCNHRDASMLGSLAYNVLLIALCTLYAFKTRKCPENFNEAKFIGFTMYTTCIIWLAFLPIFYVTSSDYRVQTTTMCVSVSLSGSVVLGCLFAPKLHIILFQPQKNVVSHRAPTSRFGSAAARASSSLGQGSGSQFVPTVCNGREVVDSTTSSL

[7] = biological target: T2, Metabotropic glutamate receptor 2; test: Potency at metabotropic glutamate receptor 2, measured as the ratio of EC50 to IC50; No effect at 1 mM
Target sequence in this assay (Q14416 19-872 limits assumed): as the sequence (Q14416 19-872 limits assumed) above

[8] = biological target: T1, Metabotropic glutamate receptor 4; test: Potency at metabotropic glutamate receptor 4, measured as the ratio of EC50 to IC50; No effect at 1 mM

T1 sequence (Q14833 whole entry): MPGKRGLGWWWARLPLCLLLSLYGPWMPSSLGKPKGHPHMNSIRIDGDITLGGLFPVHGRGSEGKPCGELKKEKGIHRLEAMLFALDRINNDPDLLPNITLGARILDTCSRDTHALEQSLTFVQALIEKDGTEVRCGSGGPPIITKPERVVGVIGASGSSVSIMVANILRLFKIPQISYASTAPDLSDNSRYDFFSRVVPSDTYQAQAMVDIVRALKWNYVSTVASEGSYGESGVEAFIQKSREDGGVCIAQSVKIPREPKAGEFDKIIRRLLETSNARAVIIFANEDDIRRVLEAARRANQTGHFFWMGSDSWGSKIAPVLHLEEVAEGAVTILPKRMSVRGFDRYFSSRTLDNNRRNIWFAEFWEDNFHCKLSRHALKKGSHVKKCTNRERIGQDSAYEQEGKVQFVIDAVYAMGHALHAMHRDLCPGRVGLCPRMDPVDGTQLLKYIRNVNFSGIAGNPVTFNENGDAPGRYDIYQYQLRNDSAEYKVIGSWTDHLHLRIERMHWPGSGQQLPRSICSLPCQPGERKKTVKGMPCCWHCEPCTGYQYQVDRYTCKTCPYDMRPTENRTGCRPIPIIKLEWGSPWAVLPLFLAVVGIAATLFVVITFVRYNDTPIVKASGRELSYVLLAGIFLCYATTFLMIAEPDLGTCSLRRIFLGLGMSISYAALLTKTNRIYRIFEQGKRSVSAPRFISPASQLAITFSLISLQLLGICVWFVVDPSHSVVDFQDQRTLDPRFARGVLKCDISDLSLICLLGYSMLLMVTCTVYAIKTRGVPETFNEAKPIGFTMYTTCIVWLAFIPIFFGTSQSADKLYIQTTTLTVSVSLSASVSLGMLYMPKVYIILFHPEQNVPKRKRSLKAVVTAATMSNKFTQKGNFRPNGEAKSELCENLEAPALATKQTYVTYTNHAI

Row | SMILES | Ki [1] [µM] | Ki [2] [µM] | Ki [6] [µM] | also measured
1 | N[C@H](C(=O)O)c1ccc(C(=O)O)cc1 | 838 | 3.7 | – | –
2 | N[C@@]1(C(=O)O)C[C@H](C(=O)O)[C@H](C(=O)O)C1 | – | – | – | NE [3]: No effect at 1 mM; NE [4]: No effect at 1 mM
3 | N[C@@H](CCP(=O)(O)O)C(=O)O | 0.47 | > 1000 | 129 | NE [5]: No effect at 1 mM
4 | N[C@@H](Cn1oc(=O)[nH]c1=O)C(=O)O [QUISQUALATE] | 112 | – | 113 | –
5 | N[C@@]1(C(=O)O)CC[C@H]2[C@H](C(=O)O)[C@H]21 | – | – | 0.013 | –
6 | N[C@H](C(=O)O)c1ccc(P(=O)(O)O)cc1 | – | – | – | NE [3]: No effect at 1 mM; NE [4]: No effect at 1 mM
7 | N[C@H](C(=O)O)c1cc(O)cc(O)c1 | – | 0.9 | > 1000 | NE [7]: No effect at 1 mM; NE [8]: No effect at 1 mM
8 | N[C@H](C(=O)O)C1[C@@H](C(=O)O)[C@@H]1C(=O)O (some centres undefined) | – | 77 | 0.11 | –
